“Also recorded” adds a separate entry of the source.
Experiments:
LN229 cells [1] = assay: LN229 scratch wound healing assay; assay type: cell-based, human
From the text: FIGS. 3(A-D) illustrate a histogram and images of the LN229 scratch wound assays. A. Histogram showing the effects of all soluble wedge-targeted compounds on LN229 scratch wound closure. Cell movement into the scratches was quantified from scratch wound widths at the start and end of the assay and normalized to the average movement of cells in the unblinded DMSO control samples. Data is presented as average percentages±standard error of the means (s.e.m.), and compound bar codes are shown on the x-axis. The majority of compounds were screened with an n=2. Some priority compounds were screened with 3-6 replicates. Representative endpoint images of samples treated with DMSO (B) and two priority inhibitors (C and D) are shown. The relative migration distances for each example are indicated.
(§1) Cells were seeded at a density of 2.7×10^4 cells per well into the internal wells of Incuyte1 Imagelock 96-well plates (Essen BioScience Inc., Ann Arbor, MI) and cultured overnight to form monolayers. Monolayers were wounded with an IncuCyte1 96-well Woundmaker Tool per the manufacturer's instructions. The outer wells were filled with PBS to buffer edge effects, and then the wounded monolayers were cultured in 100 μl of fresh media with compounds or DMSO (2×replicates at 100 μM or 1%, respectively) at 37 °C and 5% CO2. Images were captured every 4 hrs. using an Incucyte live cell imaging system equipped with the Scratch Wound Module. Scratch wound widths were calculated, per the manufacturer's instructions, at TO and at endpoint (typically T12 for LN229 and U87 cells and T8 for Gli36), which was taken as the last timepoint before wound closure. The cell migration distance was calculated from scratch widths [(T0Width−TendpointWidth)/2] and normalized to the average distance migrated by the DMSO controls. Values are presented as average percentages±standard errors of the means (s.e.m.). The majority of compounds were screened with an n of two, but the n for priority hits ranges from 2-6.
Scratch assays measure the ability of cells to migrate into a wound and close it creating a monolayer.

U87 cells = assay: U87 scratch wound healing assay; assay type: cell-based, human; conditions: 100 μM; in words
From the text: FIGS. 11(A-D) illustrate a histogram and images of the results of the U87 scratch wound assays. A. Histogram showing the effects of all soluble wedge pocket-targeting compounds on U87 scratch wound closure. Cell movement into the scratches was quantified from scratch wound widths at the start and end of the assay and normalized to the average movement of cells in the unblinded DMSO control samples. Data is presented as average percentages±s.e.m., and compound bar codes are shown on the x-axis. Most compounds were screened with an n of 2-4. Representative images of scratch wounds treated with DMSO (A) or two priority inhibitors (C and D) are shown.
as §1

LN229 cells [2] = assay: LN229 glioma sphere formation and growth assay; assay type: cell-based, human; conditions: 100 μM, in words
Procedure: FIGS. 5(A-E) illustrate a histogram and images showing the results of the LN229 sphere formation and growth assays. Selected inhibitors, activators, and control compounds identified in LN229 and/or U87 scratch wound closure assays were retested at 100 μM in a secondary assay for glioma cell (LN229) sphere formation and growth. A. Histogram showing the effects of the indicated compounds on sphere formation. On day 1, sphere footprint areas were determined and normalized to the average footprint area of the unblinded vehicle-treated controls. On day 1, a larger footprint area indicates inhibition of aggregation. B. Histogram showing the effects of the indicated compounds on sphere growth. On day 7, the changes in sphere footprint areas were calculated and normalized to the average size change of the unblinded vehicle-treated controls. On day 7, a smaller value indicates reduced growth. […] Data is presented as percentages±s.e.m. of 2-4 replicates. Representative images of samples treated with DMSO (C) and two priority inhibitors (D and E) are shown. Relative day 1 footprint areas and day 7 growth measurements are indicated for each example.
FIGS. 15(A-D) illustrate a histogram and images of titration of selected compounds on LN229 sphere formation and growth. LN229 cells were plated onto non-adherent surfaces and treated with the indicated compounds at 100, 50, and 25 μM. A. On day 1, sphere footprint areas were determined and normalized to the average footprint area of the unblinded vehicle-treated controls. On day 1, a larger foot-print area indicates inhibition of aggregation. B. On day 7, the changes in sphere footprint areas were calculated and normalized to the average size change of the unblinded vehicle-treated controls. On day 7, a smaller value indicates reduced growth. […] Data is presented as percentages±s.e.m. The initial test at 100 μM and the follow-up at that dose with titration is shown. Each bar is the average of 2 replicates. Representative day 1 (C) and day 7 (D) images of samples treated with two priority inhibitors are shown. Relative day 1 sphere footprint areas and day 7 growth for each example are indicated.
(§2) Cells were seeded at a density of 7500 cells per well into the internal wells of 96-well plates coated with 0.75% (wt/vol) PVA as previously described. Compounds were added (2×replicates per treatment) at the indicated final concentrations, and control wells were treated with matching concentrations of DMSO. The external wells of the plates were filled with PBS to buffer against edge effects, and the cells were incubated at 37 °C and 5% CO2 for 7 days. A Leica CTR6500 microscope fitted with an automated stage was used to capture brightfield images on day 1 and day 7, and sphere footprint areas were measured using Image J (v1.52a http://imagej.nih.gov/ij) as previously described. To quantify the effects of the compounds on day 1, the footprint areas of the treated wells were normalized to the average area of the matched DMSO control wells. To quantify the effects of the compounds on sphere growth, the change in the sphere footprint areas was calculated ([…]) and then normalized to the average size change of the matched DMSO samples. All values are presented as average percentages±s.e.m.
We tested the effects of twenty-four compounds (11 flagged as inhibitory, 4 as stimulatory, and nine as inert in the initial scratch-wound screen, FIG. 2) on the ability of LN229 cells to mediate cell-cell adhesion and grow in 3D culture on non-adherent surfaces. To quantify sphere formation (FIG. 5A), the footprint areas of aggregates were measured on day 1 and normalized to that of the DMSO control. At this time point, a larger footprint size (>120%) indicates inhibition, i.e., the failure of cells to form a compact aggregate. To quantify sphere growth (FIG. 5B), we calculated the percent changes in sphere footprint areas between day 1 and day 7 and normalized them to that of the DMSO controls.

Gli36 cells = assay: Gli36 glioma sphere formation and growth assay; assay type: cell-based, human
Procedure: FIGS. 6(A-E) illustrate a histogram and images showing the results of the Gli36 sphere formation and growth assays. Selected inhibitors, activators, and control compounds identified in LN229 and/or U87 scratch wound closure assays were retested at 100 μM in a secondary assay for glioma cell (Gli36) sphere formation and growth. A. Histogram showing the effects of the indicated compounds on Day 1 sphere footprint areas. Footprint areas were measured and normalized to the average footprint area of the unblinded DMSO-treated controls. On day 1, a larger footprint area indicates inhibition of aggregation. B. Histogram showing the effects of the indicated compounds on sphere growth. Changes in sphere footprint areas were calculated and normalized to the average size change of the unblinded vehicle-treated controls. On day 7, a smaller value indicates reduced growth. […] Data is presented as percentages±s.e.m. of 2-4 replicates. Representative images of samples treated with DMSO (C) and two priority inhibitors (D and E) are shown. Relative day 1 footprint areas and day 7 growth measurements are indicated for each example.
as §2

PTPμ = PTPμ (Homo sapiens, UniProt P28827); assay: PTPμ-dependent Sf9 aggregation assay; assay type: cell-based; conditions: 100 μM; 20 min pretreatment; in words
Sequence of PTPμ (P28827 21-1452): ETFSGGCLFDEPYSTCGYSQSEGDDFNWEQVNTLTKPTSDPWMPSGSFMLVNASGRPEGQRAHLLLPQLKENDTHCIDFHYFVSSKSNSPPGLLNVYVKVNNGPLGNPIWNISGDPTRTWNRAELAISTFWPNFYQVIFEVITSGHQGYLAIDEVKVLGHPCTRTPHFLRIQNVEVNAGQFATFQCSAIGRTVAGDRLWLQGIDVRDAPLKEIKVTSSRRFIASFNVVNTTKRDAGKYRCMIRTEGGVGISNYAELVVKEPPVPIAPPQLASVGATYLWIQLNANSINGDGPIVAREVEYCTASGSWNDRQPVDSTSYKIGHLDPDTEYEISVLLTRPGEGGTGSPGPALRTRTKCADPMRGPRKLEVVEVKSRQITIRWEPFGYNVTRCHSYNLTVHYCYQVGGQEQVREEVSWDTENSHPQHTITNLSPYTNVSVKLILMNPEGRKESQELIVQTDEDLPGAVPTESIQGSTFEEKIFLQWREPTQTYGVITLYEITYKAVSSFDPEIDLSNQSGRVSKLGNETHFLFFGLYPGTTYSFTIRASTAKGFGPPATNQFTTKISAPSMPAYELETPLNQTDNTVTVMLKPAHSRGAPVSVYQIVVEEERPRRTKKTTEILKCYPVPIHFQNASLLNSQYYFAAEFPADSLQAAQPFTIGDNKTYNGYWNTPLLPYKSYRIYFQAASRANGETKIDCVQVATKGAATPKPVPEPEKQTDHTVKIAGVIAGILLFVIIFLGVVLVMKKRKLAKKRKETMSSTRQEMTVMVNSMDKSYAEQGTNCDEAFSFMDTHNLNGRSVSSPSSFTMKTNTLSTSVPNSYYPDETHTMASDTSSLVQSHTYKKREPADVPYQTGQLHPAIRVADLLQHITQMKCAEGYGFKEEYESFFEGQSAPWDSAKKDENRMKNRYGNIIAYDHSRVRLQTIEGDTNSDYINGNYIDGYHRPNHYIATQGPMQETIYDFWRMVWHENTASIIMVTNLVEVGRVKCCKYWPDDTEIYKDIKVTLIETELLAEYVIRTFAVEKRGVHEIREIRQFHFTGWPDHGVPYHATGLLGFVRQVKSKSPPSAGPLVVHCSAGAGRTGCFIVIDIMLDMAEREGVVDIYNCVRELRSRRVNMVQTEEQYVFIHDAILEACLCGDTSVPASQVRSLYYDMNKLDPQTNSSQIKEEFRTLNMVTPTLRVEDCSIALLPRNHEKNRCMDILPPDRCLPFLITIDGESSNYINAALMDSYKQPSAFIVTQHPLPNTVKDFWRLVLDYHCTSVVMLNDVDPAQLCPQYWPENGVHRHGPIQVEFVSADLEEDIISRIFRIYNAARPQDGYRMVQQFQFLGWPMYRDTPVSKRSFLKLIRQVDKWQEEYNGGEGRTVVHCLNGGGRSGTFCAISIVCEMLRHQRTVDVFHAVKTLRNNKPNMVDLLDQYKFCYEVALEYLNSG

glioma cells = assay: Glioma cell assays combined (scratch and sphere, several cell lines); assay type: cell-based, human; conditions: 100 μM; multiple assays and cell lines
Procedure: FIG. 2 illustrates a schematic of a functional screening approach. Seventy-four PTPμ wedge-targeted compounds and 2 blinded DMSO samples were received from Atomwise and screened at 100 μM in scratch wound healing assays using two glioma cell lines (LN229 and U87). Selected active and control compounds were taken into secondary assays (Gli36 scratch and LN229 and Gli36 sphere formation and growth assays). Inhibitors selected as being active in primary and secondary screens were tested for effects on the survival of LN229 and Sf9 cells, and selected glioma-cell inhibitors and activators were screened for effects on Sf9-PTPμ aggregation, a highly specific test for PTPμ function.
as §1, §2

## COc1ccc(CC(NC(=O)C2CC(NC(=O)CSC)CCN2C(=O)CCC(=O)O)C(N)=O)cc1 (stereo not shown) [Compound 247685114]
LN229 cells [1]; 100 μM, in words
  Effect on LN229 scratch wound closure / migration: moderately stimulated LN229; also recorded: weakly stimulatory in U87 and LN229 scratch assays
LN229 cells [1]; Homo sapiens, LN-229, normalized to DMSO controls, read-out: LN229 scratch wound closure relative to DMSO controls
  activity at 100 µM: ~120%
U87 cells
  Effect on U87 cell migration (scratch wound closure): did not reach our strict cut-off for an activator; also recorded: weakly stimulatory in U87 and LN229 scratch assays
LN229 cells [2]; day 1
  Effect on LN229 sphere formation: did not affect LN229 sphere formation or growth
LN229 cells [2]; day 7
  Effect on LN229 sphere growth: did not affect LN229 sphere formation or growth
Gli36 cells; 100 μM, day 1, in words
  Effect on Gli36 sphere formation: affected Gli36 spheres; also recorded: accelerate Gli36 sphere condensation and growth; also recorded: weakly stimulatory in U87 and LN229 scratch assays and Gli36 sphere formation and growth assays; also recorded: stimulate Gli36 sphere formation and growth
Gli36 cells; 100 μM, day 7, in words
  Effect on Gli36 sphere growth: grew marginally faster than controls; also recorded: modest activator of Gli36 sphere growth; also recorded: weakly stimulatory in U87 and LN229 scratch assays and Gli36 sphere formation and growth assays; also recorded: stimulate Gli36 sphere formation and growth
Gli36 cells; Homo sapiens, GLI36, 24 h, day 1, of the control area, read-out: Average day 1 sphere footprint area, Gli36
  activity at 100 µM: 68%
PTPμ
  Effect on PTPμ-dependent Sf9 aggregation / adhesion: activate Sf9-PTPμ aggregation; also recorded: activate PTPμ-dependent adhesion; also recorded: considerable increase in aggregate numbers; also recorded: activator of PTPμ-dependent adhesion; also recorded: able to activate PTPμ-mediated aggregation
Glioma cells
  Effect on glioma cells, overall: only weak, if any, activity in other glioma-cell assays

From patent US20260355168A1, “COMPOSITIONS AND METHODS FOR TREATING AND DETECTING CANCER” (CASE WESTERN RESERVE UNIVERSITY, priority 2022, published 2026)
